The kinase profiling compilation of Christmann-Franck et al. (2016)

How the values were obtained:
Test in all cases: radiometric filter-binding kinase assay
AURKB (human) = AURKB (human) (UniProt Q96GD4)
CDK2 CCNA2 (human) = CDK2 CCNA2 (human) (UniProt P20248+P24941)
CHEK2 (human) = CHEK2 (human) (UniProt O96017)
CSK (human) = CSK (human) (UniProt P41240)
CSNK2A1 (human) = CSNK2A1 (human) (UniProt P68400)
DAPK1 (human) = DAPK1 (human) (UniProt P53355)
EEF2K (human) = EEF2K (human) (UniProt O00418)
EPHB3 (human) = EPHB3 (human) (UniProt P54753)
ERBB4 (human) = ERBB4 (human) (UniProt Q15303)
FGFR1 (human) = FGFR1 (human) (UniProt P11362)
GSK3B (human) = GSK3B (human) (UniProt P49841)
IKBKB (human) = IKBKB (human) (UniProt O14920)
INSRR (human) = INSRR (human) (UniProt P14616)
LCK (mouse) = settings: accession and sequence are those of the human protein
MAP2K2 (human) = MAP2K2 (human) (UniProt P36507)
MAP3K9 (human) = MAP3K9 (human) (UniProt P80192)
MAPK1 (human) = MAPK1 (human) (UniProt P28482)
MAPK13 (human) = MAPK13 (human) (UniProt O15264)
MAPKAPK3 (human) = MAPKAPK3 (human) (UniProt Q16644)
MARK4 (human) = MARK4 (human) (UniProt Q96L34)
MELK (human) = MELK (human) (UniProt Q14680)
MINK1 (human) = MINK1 (human) (UniProt Q8N4C8)
MKNK1 (human) = MKNK1 (human) (UniProt Q9BUB5)
MKNK2 (human) = MKNK2 (human) (UniProt Q9HBH9)
MYLK (human) = MYLK (human) (UniProt Q15746)
NTRK1 (human) = NTRK1 (human) (UniProt P04629)
PHKG1 (human) = PHKG1 (human) (UniProt Q16816)
PRKAA1 or PRKAA2 (rat) = settings: accession and sequence are those of the human protein
PRKACA (human) = PRKACA (human) (UniProt P17612)
PRKCZ (human) = PRKCZ (human) (UniProt Q05513)
ROCK2 (rat) = settings: accession and sequence are those of the human protein
RPS6KA1 KD1 KD2 (human) = RPS6KA1 KD1 KD2 (human) (UniProt Q15418)
SRC (human) = SRC (human) (UniProt P12931)
[1] = target: STK11 CAB39 STRADA (human) (UniProt Q9Y376+Q7RTN6+Q15831)
TTK (human) = TTK (human) (UniProt P33981)

Chain of PHKG1 (human) (Q16816 whole entry, looked up): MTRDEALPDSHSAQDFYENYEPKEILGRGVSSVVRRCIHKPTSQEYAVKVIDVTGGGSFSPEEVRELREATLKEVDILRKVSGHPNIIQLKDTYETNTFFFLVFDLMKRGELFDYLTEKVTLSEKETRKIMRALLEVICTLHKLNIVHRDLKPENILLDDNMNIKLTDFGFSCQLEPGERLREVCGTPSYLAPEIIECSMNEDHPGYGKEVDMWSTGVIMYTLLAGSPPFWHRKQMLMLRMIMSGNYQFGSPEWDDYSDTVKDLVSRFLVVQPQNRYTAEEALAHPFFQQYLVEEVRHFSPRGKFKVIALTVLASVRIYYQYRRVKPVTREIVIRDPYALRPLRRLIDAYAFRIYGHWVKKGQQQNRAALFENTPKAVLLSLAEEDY
Chain of MAP3K9 (human) (P80192 whole entry, looked up): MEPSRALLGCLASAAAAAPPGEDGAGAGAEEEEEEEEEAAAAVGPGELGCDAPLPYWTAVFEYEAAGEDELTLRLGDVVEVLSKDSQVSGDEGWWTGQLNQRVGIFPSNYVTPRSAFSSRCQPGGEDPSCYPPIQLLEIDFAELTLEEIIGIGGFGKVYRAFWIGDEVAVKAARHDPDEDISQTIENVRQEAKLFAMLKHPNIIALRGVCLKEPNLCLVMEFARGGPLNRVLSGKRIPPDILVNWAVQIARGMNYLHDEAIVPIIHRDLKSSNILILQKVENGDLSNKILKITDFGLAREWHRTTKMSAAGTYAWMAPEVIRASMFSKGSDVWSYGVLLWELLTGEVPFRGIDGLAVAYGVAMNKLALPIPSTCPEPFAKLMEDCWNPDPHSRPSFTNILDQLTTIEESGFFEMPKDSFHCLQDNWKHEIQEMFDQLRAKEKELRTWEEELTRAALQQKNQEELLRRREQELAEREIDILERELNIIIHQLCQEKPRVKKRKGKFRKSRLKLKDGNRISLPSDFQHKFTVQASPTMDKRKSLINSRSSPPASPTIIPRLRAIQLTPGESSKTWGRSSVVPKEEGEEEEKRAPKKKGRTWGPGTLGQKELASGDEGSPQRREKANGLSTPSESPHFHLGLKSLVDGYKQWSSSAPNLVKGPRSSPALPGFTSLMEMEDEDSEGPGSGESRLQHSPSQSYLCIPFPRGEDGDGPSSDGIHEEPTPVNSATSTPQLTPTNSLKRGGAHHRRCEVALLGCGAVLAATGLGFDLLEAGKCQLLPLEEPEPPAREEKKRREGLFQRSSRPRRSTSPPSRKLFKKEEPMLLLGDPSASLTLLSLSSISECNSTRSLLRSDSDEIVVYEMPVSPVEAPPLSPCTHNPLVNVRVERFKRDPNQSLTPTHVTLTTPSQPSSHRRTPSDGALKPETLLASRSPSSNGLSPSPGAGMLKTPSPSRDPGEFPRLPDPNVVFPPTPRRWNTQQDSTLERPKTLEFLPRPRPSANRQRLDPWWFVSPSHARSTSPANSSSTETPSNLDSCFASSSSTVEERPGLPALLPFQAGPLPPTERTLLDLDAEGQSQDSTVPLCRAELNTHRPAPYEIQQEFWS
Chain of MELK (human) (Q14680 whole entry, looked up): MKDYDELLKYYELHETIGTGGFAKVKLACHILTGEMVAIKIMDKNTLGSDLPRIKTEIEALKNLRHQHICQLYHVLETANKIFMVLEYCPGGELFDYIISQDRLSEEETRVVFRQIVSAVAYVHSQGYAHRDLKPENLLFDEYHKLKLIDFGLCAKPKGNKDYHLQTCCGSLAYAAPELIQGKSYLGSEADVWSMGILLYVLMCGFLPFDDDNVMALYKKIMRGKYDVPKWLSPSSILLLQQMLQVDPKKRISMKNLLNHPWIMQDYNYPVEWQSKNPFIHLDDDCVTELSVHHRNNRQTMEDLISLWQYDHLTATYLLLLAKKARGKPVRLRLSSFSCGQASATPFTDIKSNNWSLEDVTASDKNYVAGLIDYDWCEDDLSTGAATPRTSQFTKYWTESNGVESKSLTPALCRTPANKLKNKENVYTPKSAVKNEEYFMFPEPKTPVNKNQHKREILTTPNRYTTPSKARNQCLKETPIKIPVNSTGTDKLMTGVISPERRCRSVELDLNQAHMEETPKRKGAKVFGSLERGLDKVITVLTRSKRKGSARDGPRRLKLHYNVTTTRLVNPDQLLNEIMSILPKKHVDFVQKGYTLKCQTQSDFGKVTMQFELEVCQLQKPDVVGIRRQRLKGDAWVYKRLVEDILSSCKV
Chain of MKNK2 (human) (Q9HBH9 whole entry, looked up): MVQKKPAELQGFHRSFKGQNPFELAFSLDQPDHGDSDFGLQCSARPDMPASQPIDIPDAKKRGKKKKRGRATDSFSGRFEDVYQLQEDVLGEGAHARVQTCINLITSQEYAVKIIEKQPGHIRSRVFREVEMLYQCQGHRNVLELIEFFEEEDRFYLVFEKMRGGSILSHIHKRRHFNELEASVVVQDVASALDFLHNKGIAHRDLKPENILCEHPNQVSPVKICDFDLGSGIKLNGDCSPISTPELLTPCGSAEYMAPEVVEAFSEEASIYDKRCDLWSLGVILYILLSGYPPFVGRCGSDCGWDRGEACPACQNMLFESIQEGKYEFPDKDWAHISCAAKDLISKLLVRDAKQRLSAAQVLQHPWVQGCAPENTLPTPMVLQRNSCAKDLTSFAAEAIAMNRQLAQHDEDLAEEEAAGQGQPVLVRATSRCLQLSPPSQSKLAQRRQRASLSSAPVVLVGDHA
Chain of MKNK1 (human) (Q9BUB5 whole entry, looked up): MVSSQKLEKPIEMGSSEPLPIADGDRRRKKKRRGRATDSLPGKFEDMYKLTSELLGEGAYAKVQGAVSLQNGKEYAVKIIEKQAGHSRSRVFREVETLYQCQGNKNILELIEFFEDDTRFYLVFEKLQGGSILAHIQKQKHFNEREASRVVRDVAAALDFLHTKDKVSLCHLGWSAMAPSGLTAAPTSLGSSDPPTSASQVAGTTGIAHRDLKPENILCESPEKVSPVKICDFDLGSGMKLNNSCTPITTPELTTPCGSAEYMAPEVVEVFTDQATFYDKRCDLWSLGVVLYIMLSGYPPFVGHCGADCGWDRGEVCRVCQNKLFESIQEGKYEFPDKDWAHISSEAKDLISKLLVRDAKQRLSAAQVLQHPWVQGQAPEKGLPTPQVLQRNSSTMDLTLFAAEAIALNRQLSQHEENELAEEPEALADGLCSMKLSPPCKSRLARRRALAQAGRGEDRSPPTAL
Chain of MAPKAPK3 (human) (Q16644 whole entry, looked up): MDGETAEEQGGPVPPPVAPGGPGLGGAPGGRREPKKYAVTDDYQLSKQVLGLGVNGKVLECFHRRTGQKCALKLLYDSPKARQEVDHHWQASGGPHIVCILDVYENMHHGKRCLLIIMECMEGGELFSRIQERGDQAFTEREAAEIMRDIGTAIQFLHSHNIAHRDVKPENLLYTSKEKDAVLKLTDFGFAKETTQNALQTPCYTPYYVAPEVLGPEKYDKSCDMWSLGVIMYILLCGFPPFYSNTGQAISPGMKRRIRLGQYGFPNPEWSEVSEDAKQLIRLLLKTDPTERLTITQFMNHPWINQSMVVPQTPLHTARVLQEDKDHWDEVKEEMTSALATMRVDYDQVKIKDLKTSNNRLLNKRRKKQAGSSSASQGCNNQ
Chain of GSK3B (human) (P49841 whole entry, looked up): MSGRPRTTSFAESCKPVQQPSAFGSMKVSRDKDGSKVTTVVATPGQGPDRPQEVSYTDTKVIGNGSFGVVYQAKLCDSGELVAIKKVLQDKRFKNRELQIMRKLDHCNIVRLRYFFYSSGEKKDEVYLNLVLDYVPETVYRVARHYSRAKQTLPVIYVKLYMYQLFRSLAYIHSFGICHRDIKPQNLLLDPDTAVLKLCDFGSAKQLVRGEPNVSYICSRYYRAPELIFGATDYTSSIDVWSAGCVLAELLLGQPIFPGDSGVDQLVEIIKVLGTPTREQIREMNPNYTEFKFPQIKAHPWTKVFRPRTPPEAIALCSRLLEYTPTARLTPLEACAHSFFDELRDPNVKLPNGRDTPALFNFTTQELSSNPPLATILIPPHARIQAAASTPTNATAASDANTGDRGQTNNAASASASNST
Chain of FGFR1 (human) (P11362 whole entry, looked up): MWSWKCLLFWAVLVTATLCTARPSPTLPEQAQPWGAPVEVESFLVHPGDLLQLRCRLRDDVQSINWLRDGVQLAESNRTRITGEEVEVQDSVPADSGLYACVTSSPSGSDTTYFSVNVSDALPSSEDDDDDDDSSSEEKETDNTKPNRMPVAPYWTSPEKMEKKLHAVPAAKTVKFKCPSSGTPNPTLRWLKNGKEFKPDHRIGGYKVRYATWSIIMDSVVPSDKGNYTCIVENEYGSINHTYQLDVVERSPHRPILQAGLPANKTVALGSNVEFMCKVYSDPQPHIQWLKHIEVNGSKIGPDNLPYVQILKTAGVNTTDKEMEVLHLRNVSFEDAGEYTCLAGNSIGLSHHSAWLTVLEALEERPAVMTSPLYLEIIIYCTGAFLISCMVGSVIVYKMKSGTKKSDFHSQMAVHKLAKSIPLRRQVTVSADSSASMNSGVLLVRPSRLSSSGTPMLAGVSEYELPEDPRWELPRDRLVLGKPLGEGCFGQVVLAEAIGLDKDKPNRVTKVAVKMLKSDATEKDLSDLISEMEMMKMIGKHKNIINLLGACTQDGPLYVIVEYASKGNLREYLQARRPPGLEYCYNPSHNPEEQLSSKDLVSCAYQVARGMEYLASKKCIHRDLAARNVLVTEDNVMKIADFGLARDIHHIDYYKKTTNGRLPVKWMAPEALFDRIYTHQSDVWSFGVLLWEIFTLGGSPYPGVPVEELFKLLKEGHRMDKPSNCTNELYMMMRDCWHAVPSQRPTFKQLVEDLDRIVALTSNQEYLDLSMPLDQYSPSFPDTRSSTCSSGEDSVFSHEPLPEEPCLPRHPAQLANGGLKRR

FC(F)(F)c1ccc(-c2ccc(Oc3cncc4sc(-c5nn[nH]n5)cc34)cc2)cc1
residual activity (AURKB (human); compound 1.0 µM): 81%
residual activity (AURKB (human); compound 10.0 µM): 40%
residual activity (CDK2 CCNA2 (human); compound 1.0 µM): 79%
residual activity (CDK2 CCNA2 (human); compound 10.0 µM): 47%
residual activity (CHEK2 (human); compound 1.0 µM): 102%
residual activity (CHEK2 (human); compound 10.0 µM): 37%
residual activity (CSK (human); compound 1.0 µM): 100%
residual activity (CSK (human); compound 10.0 µM): 95%
residual activity (CSNK2A1 (human); compound 1.0 µM): 20%
residual activity (CSNK2A1 (human); compound 10.0 µM): 4%
residual activity (DAPK1 (human); compound 1.0 µM): 47%
residual activity (DAPK1 (human); compound 10.0 µM): 17%
residual activity (EEF2K (human); compound 1.0 µM): 106%
residual activity (EEF2K (human); compound 10.0 µM): 80%
residual activity (EPHB3 (human); compound 1.0 µM): 122%
residual activity (EPHB3 (human); compound 10.0 µM): 104%
residual activity (ERBB4 (human); compound 1.0 µM): 94%
residual activity (ERBB4 (human); compound 10.0 µM): 89%
residual activity (FGFR1 (human); compound 1.0 µM): 102%
residual activity (FGFR1 (human); compound 10.0 µM): 76%
residual activity (GSK3B (human); compound 1.0 µM): 63%
residual activity (GSK3B (human); compound 10.0 µM): 14%
residual activity (IKBKB (human); compound 1.0 µM): 89%
residual activity (IKBKB (human); compound 10.0 µM): 56%
residual activity (INSRR (human); compound 1.0 µM): 67%
residual activity (INSRR (human); compound 10.0 µM): 27%
residual activity (LCK (mouse); compound 1.0 µM): 100%
residual activity (LCK (mouse); compound 10.0 µM): 98%
residual activity (MAP2K2 (human); compound 1.0 µM): 87%
residual activity (MAP2K2 (human); compound 10.0 µM): 70%
residual activity (MAP3K9 (human); compound 1.0 µM): 126%
residual activity (MAP3K9 (human); compound 10.0 µM): 91%
residual activity (MAPK1 (human); compound 1.0 µM): 114%
residual activity (MAPK1 (human); compound 10.0 µM): 95%
residual activity (MAPK13 (human); compound 1.0 µM): 113%
residual activity (MAPK13 (human); compound 10.0 µM): 77%
residual activity (MAPKAPK3 (human); compound 1.0 µM): 109%
residual activity (MAPKAPK3 (human); compound 10.0 µM): 95%
residual activity (MARK4 (human); compound 1.0 µM): 106%
residual activity (MARK4 (human); compound 10.0 µM): 97%
residual activity (MELK (human); compound 1.0 µM): 81%
residual activity (MELK (human); compound 10.0 µM): 19%
residual activity (MINK1 (human); compound 1.0 µM): 96%
residual activity (MINK1 (human); compound 10.0 µM): 87%
residual activity (MKNK1 (human); compound 1.0 µM): 89%
residual activity (MKNK1 (human); compound 10.0 µM): 55%
residual activity (MKNK2 (human); compound 1.0 µM): 105%
residual activity (MKNK2 (human); compound 10.0 µM): 64%
residual activity (MYLK (human); compound 1.0 µM): 94%
residual activity (MYLK (human); compound 10.0 µM): 42%
residual activity (NTRK1 (human); compound 1.0 µM): 104%
residual activity (NTRK1 (human); compound 10.0 µM): 71%
residual activity (PHKG1 (human); compound 1.0 µM): 102%
residual activity (PHKG1 (human); compound 10.0 µM): 82%
residual activity (PRKAA1 or PRKAA2 (rat); compound 1.0 µM): 81%
residual activity (PRKAA1 or PRKAA2 (rat); compound 10.0 µM): 51%
residual activity (PRKACA (human); compound 1.0 µM): 101%
residual activity (PRKACA (human); compound 10.0 µM): 89%
residual activity (PRKCZ (human); compound 1.0 µM): 126%
residual activity (PRKCZ (human); compound 10.0 µM): 60%
residual activity (ROCK2 (rat); compound 1.0 µM): 90%
residual activity (ROCK2 (rat); compound 10.0 µM): 93%
residual activity (RPS6KA1 KD1 KD2 (human); compound 1.0 µM): 122%
residual activity (RPS6KA1 KD1 KD2 (human); compound 10.0 µM): 57%
residual activity (SRC (human); compound 1.0 µM): 108%
residual activity (SRC (human); compound 10.0 µM): 95%
residual activity ([1]; compound 1.0 µM): 85%
residual activity ([1]; compound 10.0 µM): 64%
residual activity (TTK (human); compound 1.0 µM): 83%
residual activity (TTK (human); compound 10.0 µM): 63%
